According to ChEMBL document CHEMBL3751685, “Borrelidin Induces the Unfolded Protein Response in Oral Cancer Cells and Chop-Dependent Apoptosis” (ACS Med Chem Lett, 2015):
Active and inactive are the calls of the source. The rule behind the calls is not given here.

Key:
[1] = target: T1, Threonine--tRNA ligase 1, cytoplasmic (Mus musculus) (UniProt Q9D0R2); details: MEF, 5 uM
T1 sequence (whole entry): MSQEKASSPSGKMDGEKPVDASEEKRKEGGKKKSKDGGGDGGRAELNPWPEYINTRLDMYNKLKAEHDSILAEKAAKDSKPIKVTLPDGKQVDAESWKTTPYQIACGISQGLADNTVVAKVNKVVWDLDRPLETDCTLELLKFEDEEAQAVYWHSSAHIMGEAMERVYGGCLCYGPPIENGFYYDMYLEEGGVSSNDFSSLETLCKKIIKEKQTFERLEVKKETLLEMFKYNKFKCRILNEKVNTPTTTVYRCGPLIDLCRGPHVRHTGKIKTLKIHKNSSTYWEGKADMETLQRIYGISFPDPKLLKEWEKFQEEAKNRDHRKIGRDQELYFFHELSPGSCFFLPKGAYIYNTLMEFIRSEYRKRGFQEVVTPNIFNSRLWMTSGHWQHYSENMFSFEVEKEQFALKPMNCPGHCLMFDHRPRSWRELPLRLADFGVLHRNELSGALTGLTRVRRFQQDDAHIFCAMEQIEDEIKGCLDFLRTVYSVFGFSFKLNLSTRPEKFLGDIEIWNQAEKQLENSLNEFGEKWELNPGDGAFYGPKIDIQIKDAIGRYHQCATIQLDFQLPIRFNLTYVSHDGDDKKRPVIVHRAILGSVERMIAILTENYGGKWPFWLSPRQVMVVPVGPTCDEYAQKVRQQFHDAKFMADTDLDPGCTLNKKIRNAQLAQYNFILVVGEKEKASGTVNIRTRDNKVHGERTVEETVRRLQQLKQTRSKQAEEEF
Description: Inhibition of ThRs in mouse MEF cells expressing Gcn2 (-/-) assessed as effect on Gadd45beta mRNA level at 5 uM by RT-PCR analysis

[2] = tested on: UMSCC14A; experiment: Inhibition of cell proliferation in human UMSCC14A cells for 24 hrs by Celltiter Glo assay; format: functional, cell-based
[3] = tested on: MEF; experiment: Inhibition of cell proliferation in mouse MEF cells expressing Hri(-/-) after 16 hrs CelltiterGlo assay; format: functional, cell-based
[4] = target: T1, Threonine--tRNA ligase 1, cytoplasmic (Mus musculus); details: MEF, 5 uM; remark: listed apart in the source
Description: Inhibition of ThRs in mouse MEF cells expressing Gcn2 (-/-) assessed as effect on Noxa mRNA level at 5 uM by RT-PCR analysis

[5] = target: T2, Threonine--tRNA ligase 1, cytoplasmic (Homo sapiens) (UniProt P26639); experiment: Inhibition of ThRS in human UMSCC1 cells assessed as increase in ATF3 mRNA level at 5 uM after 6 hrs by RT-qPCR analysis; format: cell-based
T2 sequence (whole entry): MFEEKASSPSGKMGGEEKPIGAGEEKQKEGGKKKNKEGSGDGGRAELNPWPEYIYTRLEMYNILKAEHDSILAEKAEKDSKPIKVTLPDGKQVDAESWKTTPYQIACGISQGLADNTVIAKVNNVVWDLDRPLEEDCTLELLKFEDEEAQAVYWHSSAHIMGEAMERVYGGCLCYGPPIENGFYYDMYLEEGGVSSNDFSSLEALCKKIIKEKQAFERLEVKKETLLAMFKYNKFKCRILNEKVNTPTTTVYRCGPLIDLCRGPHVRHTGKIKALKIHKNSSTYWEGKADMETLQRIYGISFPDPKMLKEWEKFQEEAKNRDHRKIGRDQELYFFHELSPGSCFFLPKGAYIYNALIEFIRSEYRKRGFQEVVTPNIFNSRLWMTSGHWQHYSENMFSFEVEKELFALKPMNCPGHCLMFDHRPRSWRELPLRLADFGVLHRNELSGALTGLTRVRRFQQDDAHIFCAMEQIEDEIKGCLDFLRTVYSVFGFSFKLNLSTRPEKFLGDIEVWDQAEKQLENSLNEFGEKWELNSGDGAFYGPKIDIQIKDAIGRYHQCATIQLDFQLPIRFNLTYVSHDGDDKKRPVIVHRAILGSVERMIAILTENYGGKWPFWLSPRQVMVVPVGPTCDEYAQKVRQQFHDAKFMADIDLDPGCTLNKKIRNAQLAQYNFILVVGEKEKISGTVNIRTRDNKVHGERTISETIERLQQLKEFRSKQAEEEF

[6] = tested on: MEF; experiment: Inhibition of cell proliferation in mouse MEF cells expressing Chop(-/-) after 16 hrs Celltiter Glo assay; format: functional, cell-based
[7] = target: T1, Threonine--tRNA ligase 1, cytoplasmic (Mus musculus); details: MEF, 5 uM; remark: listed apart in the source
Description: Inhibition of ThRs in mouse MEF cells expressing Gcn2 (-/-) assessed as effect on Dr5 mRNA level at 5 uM by RT-PCR analysis

[8] = tested on: A549; experiment: Inhibition of cell proliferation in human A549 cells expressing BAX/BAK (-/-) after 24 hrs by CelltiterGlo assay; format: functional, cell-based
[9] = tested on: UMSCC1; experiment: Inhibition of cell proliferation in human UMSCC1 cells for 24 hrs by Celltiter Glo assay; format: functional, cell-based
[10] = tested on: MEF; experiment: Inhibition of cell proliferation in mouse MEF cells expressing eIF2alpha Ser51Ala mutant after 16 hrs Celltiter Glo assay; format: functional, cell-based
[11] = target: T1, Threonine--tRNA ligase 1, cytoplasmic (Mus musculus); details: MEF, 5 uM; remark: listed apart in the source
Description: Inhibition of ThRs in mouse MEF cells expressing Gcn2 (-/-) assessed as effect on Puma mRNA level at 5 uM by RT-PCR analysis

[12] = tested on: MEF; experiment: Inhibition of cell proliferation in mouse MEF cells expressing Pkr(-/-) after 16 hrs CelltiterGlo assay; format: functional, cell-based
[13] = tested on: MEF; experiment: Inhibition of cell proliferation in mouse MEF cells expressing Atf4(-/-) after 16 hrs CelltiterGlo assay; format: functional, cell-based
[14] = target: T1, Threonine--tRNA ligase 1, cytoplasmic (Mus musculus); details: MEF, 5 uM; remark: listed apart in the source
Description: Inhibition of ThRs in mouse MEF cells expressing Perk (-/-) assessed as effect on Chop level at 5 uM by immunoblot analysis

[15] = target: T2, Threonine--tRNA ligase 1, cytoplasmic (Homo sapiens); experiment: Inhibition of ThRS in human UMSCC1 cells assessed as increase in ATF4 mRNA level at 5 uM after 6 hrs by RT-qPCR analysis; format: cell-based
[16] = target: T1, Threonine--tRNA ligase 1, cytoplasmic (Mus musculus); details: MEF, 5 uM; remark: listed apart in the source
Description: Inhibition of ThRs in mouse MEF cells expressing Perk (-/-) assessed as effect on phosphorylated eIF2alpha level at 5 uM by immunoblot analysis

[17] = tested on: UMSCC23; experiment: Inhibition of cell proliferation in human UMSCC23 cells for 24 hrs by Celltiter Glo assay; format: functional, cell-based
[18] = target: T2, Threonine--tRNA ligase 1, cytoplasmic (Homo sapiens); experiment: Inhibition of ThRS in human UMSCC1 cells assessed as increase in UPR-related gene expression at 10 uM by RT-PCR analysis; format: cell-based
[19] = target: T2, Threonine--tRNA ligase 1, cytoplasmic (Homo sapiens); experiment: Inhibition of ThRS in human UMSCC1 cells assessed as increase in DNA damaging-related gene expression at 10 uM by RT-PCR analysis; format: cell-based
[20] = target: T2, Threonine--tRNA ligase 1, cytoplasmic (Homo sapiens); experiment: Inhibition of ThRS in human UMSCC1 cells assessed as increase in XBP1 splicing by RT-PCR analysis; format: cell-based
[21] = target: T2, Threonine--tRNA ligase 1, cytoplasmic (Homo sapiens); experiment: Inhibition of ThRS in human UMSCC1 cells assessed as increase in apoptosis-related gene expression at 10 uM by RT-PCR analysis; format: cell-based
[22] = target: T1, Threonine--tRNA ligase 1, cytoplasmic (Mus musculus); details: MEF, 5 uM; remark: listed apart in the source
Description: Inhibition of ThRs in mouse MEF cells expressing Gcn2 (-/-) assessed as effect on phosphorylated eIF2alpha level at 5 uM by immunoblot analysis

[23] = tested on: UMSCC1; experiment: Effect on Bip/GRP78 mRNA level in human UMSCC1 cells at 5 uM after 6 hrs by RT-qPCR analysis; format: functional, cell-based
[24] = Cytotoxicity against HEK cells after 24 hrs by CelltiterGlo assay; format: cell-based; details: human, hek293, 24 h
[25] = target: T1, Threonine--tRNA ligase 1, cytoplasmic (Mus musculus); details: MEF, 5 uM; remark: listed apart in the source
Description: Inhibition of ThRs in mouse MEF cells expressing Gcn2 (-/-) assessed as effect on Chop level at 5 uM by immunoblot analysis

[26] = target: T2, Threonine--tRNA ligase 1, cytoplasmic (Homo sapiens); experiment: Inhibition of ThRS in human UMSCC1 cells assessed as increase in CHOP mRNA level at 5 uM after 6 hrs by RT-qPCR analysis; format: cell-based
[27] = target: T1, Threonine--tRNA ligase 1, cytoplasmic (Mus musculus); details: MEF, 5 uM; remark: listed apart in the source
Description: Inhibition of ThRs in mouse MEF cells expressing Gcn2 (-/-) assessed as effect on Trb3 mRNA level at 5 uM by RT-PCR analysis

Compound	inhibition [2]	Activity [5]	inhibition [9]	Activity [15]	inhibition [17]	Activity [18]	Activity [19]	Activity [20]	Activity [21]	Activity [23]	Activity [24]	Activity [26]	also measured
C[C@@H]1C[C@H](C)C[C@H](C)[C@@H](O)CC(=O)O[C@H]([C@@H]2CCC[C@H]2C(=O)O)C/C=C/C=C(/C#N)[C@H](O)[C@@H](C)C1 [BORRELIDIN]	Active	Active	Active	Active	Active	Active	Active	Active	Active	inactive	Toxic	Active	inhibition [1]: inactive; inhibition [3]: inactive; inhibition [4]: inactive; inhibition [6]: inactive; inhibition [7]: inactive; inhibition [8]: inactive; inhibition [10]: Active; inhibition [11]: inactive; inhibition [12]: inactive; inhibition [13]: inactive; inhibition [14]: inactive; inhibition [16]: inactive; inhibition [22]: inactive; inhibition [25]: inactive; inhibition [27]: inactive
C[C@@H]1C[C@H](C)C[C@H](C)[C@@H](O)CC(=O)O[C@H]([C@@H]2CCC[C@H]2C(N)=O)C/C=C/C=C(/C#N)[C@H](O)[C@@H](C)C1	Active	Active	Active	Active	Active	inactive	inactive	Active	inactive	inactive	Toxic	Active	–
CC(=O)NC/C1=C/C=C/C[C@@H]([C@@H]2CCC[C@H]2C(N)=O)OC(=O)C[C@H](O)[C@@H](C)C[C@@H](C)C[C@@H](C)C[C@H](C)[C@H]1O	inactive	inactive	inactive	inactive	inactive	inactive	inactive	inactive	inactive	–	Toxic	inactive	–
